Legend:
[1] = biological target: bacterial PDF (peptide deformylase), enzyme from E. coli (Escherichia coli, UniProt P0A6K3); test: Bacterial peptide deformylase (PDF) assay, enzyme from E. coli; format: biochemical
Procedure: (§1) The IC50 value of a compound of the invention as a bacterial PDF inhibitor was determined using the following assay.
(§2) Assay buffer (pH 7.2): 0.1 M MOPS pH was adjusted to 7.2 with NaOH, containing 0.25 M NaCl, 100 microgram/mL catalase and 1 mg/mL BSA.
(§3) Enzyme mix: 670 ng/mL of enzyme (to finally have 50 ng of enzyme per well).
(§4) Substrate: 10 mM f-Met-Ala was made up from 200 mM f-Met-Ala in methanol with assay buffer.
(§5) TNBS solution: Freshly dilute 1 M TNBS stock solution to 1:10 with water.
(§6) Buffer C: 0.5 M borate buffer adjusted to pH 9.5 with NaOH.
(§7) Buffer D: 0.2 ml of freshly prepared 0.5 M Na2SO3 was mixed with 9.8 mL of 0.5M NaH2PO4.
(§8) Inhibitor solution: 2 mM Sodium 4-(hydroxymercurio) benzoate in assay buffer.
(§9) The assay was performed in a 96 Microtiter plate containing test compound. To each well containing test compound mix was added 75 microliter of enzyme mix from E. coli followed, by the addition of 25 microliter of substrate mix. The resulting mix was incubated for 30 minutes at room temperature with shaking. TNBS solution (50 microliter/well) was added and the resulting mixture was incubated for 15 minutes under shaking. Buffer C was then added (20 microliter/well). After incubating at room temperature for 15 minutes under shaking, buffer D was added (50 microliter/well). The optical […] was then measured at 420 nm, thereby determining the IC50 value.

[2] = biological target: T1, bacterial PDF (peptide deformylase), enzyme from S. aureus (Staphylococcus aureus, UniProt P68826); test: Bacterial peptide deformylase (PDF) assay, enzyme from S. aureus; format: biochemical; details: PDF enzyme from S. aureus; substrate f-Met-Ala; TNBS readout at 420 nm; read-out: IC50 (enzyme from S. aureus)
T1 sequence (P68826 1-183): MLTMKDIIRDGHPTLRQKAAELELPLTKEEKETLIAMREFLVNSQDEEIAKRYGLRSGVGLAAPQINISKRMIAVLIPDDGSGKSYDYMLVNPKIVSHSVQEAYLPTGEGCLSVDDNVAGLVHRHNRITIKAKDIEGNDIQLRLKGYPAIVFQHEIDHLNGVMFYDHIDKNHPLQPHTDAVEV
Procedure: as §1, §2, §3, §4, §5, §6, §7, §8, §9
The assay was repeated using enzyme mix from S. aureus.

bacterial PDF (peptide deformylase), enzyme from E. coli, sequence (P0A6K3 whole entry): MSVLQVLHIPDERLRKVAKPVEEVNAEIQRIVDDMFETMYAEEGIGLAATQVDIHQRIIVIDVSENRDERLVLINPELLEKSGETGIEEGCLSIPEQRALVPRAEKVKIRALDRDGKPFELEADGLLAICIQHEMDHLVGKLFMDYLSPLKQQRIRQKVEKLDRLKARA

Row | Structure (SMILES) | IC50 [1] [µM] | IC50 [2] [µM]
1 | CCN1CC(CC(=O)NO)S(=O)(=O)c2ccc(C(=O)NCc3ccc(Br)cc3)cc21 (stereo not shown) [Example 17, 4-Ethyl-2-hydroxycarbamoylmethyl-1,1-dioxo-1,2,3,4-tetrahydro-1λ^6-benzo[1,4]-thiazine-6-carboxylic acid 4-bromo-benzylamide] | 1.5 | 3.4
2 | CCN1CC(CC(=O)NO)S(=O)(=O)c2ccc(C(=O)NCc3cccc(C(F)(F)F)c3)cc21 (stereo not shown) [Example 24, 4-Ethyl-2-hydroxycarbamoylmethyl-1,1-dioxo-1,2,3,4-tetrahydro-1λ^6-benzo[1,4]thiazine-6-carboxylic acid 3-trifluoromethyl-benzylamide] | 2 | 8.3
3 | CCN1CC(CC(=O)NO)S(=O)(=O)c2ccc(C(=O)NCc3ccc(N(C)C)cc3)cc21 (stereo not shown) [Example 27, 4-Ethyl-2-hydroxycarbamoylmethyl-1,1-dioxo-1,2,3,4-tetrahydro-1λ^6-benzo[1,4]thiazine-6-carboxylic acid 4-dimethylaminobenzylamide] | 9.3 | 18.2
4 | CCCN1CC(CC(=O)NO)S(=O)(=O)c2ccccc21 (stereo not shown) [Example 6, 2-(1,1-Dioxo-4-propyl-1,2,3,4-tetrahydro-1λ^6-benzo[1,4]thiazin-2-yl)-N-hydroxy-acetamide] | 1.6 | 1.9
5 | O=C(CC1CN(CC2CCCCC2)c2ccccc2S1(=O)=O)NO (stereo not shown) [Example 38, 2-(4-Cyclohexylmethyl-1,1-dioxo-1,2,3,4-tetrahydro-1λ^6-benzo[1,4]thiazin-2-yl)-N-hydroxy-acetamide] | 33.2 | 18.1
6 | O=C(CC1CNc2ccccc2S1(=O)=O)NO (stereo not shown) [Example 2, 2-(1,1-Dioxo-1,2,3,4-tetrahydro-1λ^6-benzo[1,4]thiazin-2-yl)-N-hydroxy-acetamide] | 3.4 | 1.5
7 | CCN1CC(CC(=O)NO)S(=O)(=O)c2ccc(C(=O)NCc3cccc(Br)c3)cc21 (stereo not shown) [Example 16, 4-Ethyl-2-hydroxycarbamoylmethyl-1,1-dioxo-1,2,3,4-tetrahydro-1λ^6-benzo[1,4]thiazine-6-carboxylic acid 3-bromo-benzylamide] | 2 | 9.7
8 | CCN1CC(CC(=O)NO)S(=O)(=O)c2ccc(C(=O)NCc3ccc([N+](=O)[O-])cc3)cc21 (stereo not shown) [Example 20, 4-Ethyl-2-hydroxycarbamoylmethyl-1,1-dioxo-1,2,3,4-tetrahydro-1λ^6-benzo[1,4]thiazine-6-carboxylic acid 4-nitro-benzylamide] | 1.2 | 3.9
9 | O=C(CC1CNc2ccccc2S1)NO (stereo not shown) [Example 1, 2-(3,4-Dihydro-2H-benzo[1,4]thiazin-2-yl)-N-hydroxy-acetamide] | 56.7 | 37.6
10 | CCN1CC(CC(=O)NO)S(=O)(=O)c2ccc(C(=O)NCc3ccncc3)cc21 (stereo not shown) [Example 28, 4-Ethyl-2-hydroxycarbamoylmethyl-1,1-dioxo-1,2,3,4-tetrahydro-1λ^6-benzo[1,4]thiazine-6-carboxylic acid (pyridin-4-ylmethyl)-amide] | > 200 | 70.5
11 | CCN1CC(CC(=O)NO)Sc2ccccc21 (stereo not shown) [Example 3, 2-(4-Ethyl-3,4-dihydro-2H-benzo[1,4]thiazin-2-yl)-N-hydroxy-acetamide] | 2.6 | 5.6
12 | O=C(CC1CN(CC2CC2)c2ccccc2S1(=O)=O)NO (stereo not shown) [Example 35] | 2.1 | 4.8
13 | CCN1CC(CC(=O)NO)S(=O)(=O)c2ccc(C(=O)NCc3ccccc3F)cc21 (stereo not shown) [Example 12, 4-Ethyl-2-hydroxycarbamoylmethyl-1,1-dioxo-1,2,3,4-tetrahydro-1λ^6-benzo[1,4]thiazine-6-carboxylic acid 2-fluoro-benzylamide] | 10.8 | 36.8
14 | CCN1CC(CC(=O)NO)S(=O)(=O)c2ccc(C(=O)Nc3cc[nH]n3)cc21 (stereo not shown) [Example 30, 4-Ethyl-2-hydroxycarbamoylmethyl-1,1-dioxo-1,2,3,4-tetrahydro-1λ^6-benzo[1,4]thiazine-6-carboxylic acid (1H-pyrazol-3-yl)-amide] | 11.5 | 30.8
15 | O=C(CC1CN(CC2CCCC2)c2ccccc2S1(=O)=O)NO (stereo not shown) [Example 37, 2-(4-Cyclopentylmethyl-1,1-dioxo-1,2,3,4-tetrahydro-1λ^6-benzo[1,4]thiazin-2-yl)-N-hydroxy-acetamide] | 11.1 | 13.9
16 | O=C(CC1CN(CC2CCC2)c2ccccc2S1(=O)=O)NO (stereo not shown) [Example 36, 2-(4-Cyclobutylmethyl-1,1-dioxo-1,2,3,4-tetrahydro-1λ^6-benzo[1,4]thiazin-2-yl)-N-hydroxy-acetamide] | 3.3 | 3.8
17 | CCN1CC(CC(=O)NO)S(=O)(=O)c2ccc(C(=O)NCc3cccc(OC)c3)cc21 (stereo not shown) [Example 22, 4-Ethyl-2-hydroxycarbamoylmethyl-1,1-dioxo-1,2,3,4-tetrahydro-1λ^6-benzo[1,4]thiazine-6-carboxylic acid 3-methoxy-benzylamide] | 1 | 2.3
18 | CCN1CC(CC(=O)NO)S(=O)(=O)c2ccc(C(=O)N3CCN(C)CC3)cc21 (stereo not shown) [Example 32, 2-[4-Ethyl-6-(4-methyl-piperazine-1-carbonyl)-1,1-dioxo-1,2,3,4-tetrahydro-1λ^6-benzo[1,4]thiazin-2-yl]-N-hydroxy-acetamide] | > 200 | 128
19 | CCN1CC(CC(=O)NO)S(=O)(=O)c2ccc(C(=O)NCc3ccc(F)cc3)cc21 (stereo not shown) [Example 14, 4-Ethyl-2-hydroxycarbamoylmethyl-1,1-dioxo-1,2,3,4-tetrahydro-1λ^6-benzo[1,4]thiazine-6-carboxylic acid 4-fluoro-benzylamide] | 10.5 | 10
20 | CCN1CC(CC(=O)NO)S(=O)(=O)c2ccc(C(=O)NCc3cccc(F)c3)cc21 (stereo not shown) [Example 13, 4-Ethyl-2-hydroxycarbamoylmethyl-1,1-dioxo-1,2,3,4-tetrahydro-1λ^6-benzo[1,4]thiazine-6-carboxylic acid 3-fluoro-benzylamide] | 11.7 | 13.7
21 | CCN1CC(CC(=O)NO)S(=O)(=O)c2ccc(C(=O)NCc3ccccc3Br)cc21 (stereo not shown) [Example 15, 4-Ethyl-2-hydroxycarbamoylmethyl-1,1-dioxo-1,2,3,4-tetrahydro-1λ^6-benzo[1,4]thiazine-6-carboxylic acid 2-bromo-benzylamide] | 20 | 9.6
22 | CCCCN1CC(CC(=O)NO)S(=O)(=O)c2ccccc21 (stereo not shown) [Example 8, 2-(4-Butyl-1,1-dioxo-1,2,3,4-tetrahydro-1λ^6-benzo[1,4]thiazin-2-yl)-N-hydroxy-acetamide] | 8.8 | 8.1
23 | CCN1CC(CC(=O)NO)S(=O)(=O)c2ccc(C(=O)NCc3ccccc3OC)cc21 (stereo not shown) [Example 21, 4-Ethyl-2-hydroxycarbamoylmethyl-1,1-dioxo-1,2,3,4-tetrahydro-1λ^6-benzo[1,4]thiazine-6-carboxylic acid 2-methoxy-benzylamide] | 1.5 | 1.5
24 | CCN1CC(CC(=O)NO)S(=O)(=O)c2ccccc21 (stereo not shown) [Example 4, 2-(4-Ethyl-1,1-dioxo-1,2,3,4-tetrahydro-1λ^6-benzo[1,4]thiazin-2-yl)-N-hydroxy-acetamide] | 1.4 | 2
25 | CCN1CC(CC(=O)NO)S(=O)(=O)c2ccc(C(=O)NCc3ccc(OC(F)(F)F)cc3)cc21 (stereo not shown) [Example 26, 4-Ethyl-2-hydroxycarbamoylmethyl-1,1-dioxo-1,2,3,4-tetrahydro-1λ^6-benzo[1,4]thiazine-6-carboxylic acid 4-trifluoromethoxybenzylamide] | 1.1 | 5
26 | CCN1CC(CC(=O)NO)S(=O)(=O)c2ccc(C(=O)Nc3cc(-c4cccs4)n[nH]3)cc21 (stereo not shown) [Example 33, 4-Ethyl-2-hydroxycarbamoylmethyl-1,1-dioxo-1,2,3,4-tetrahydro-1λ^6-benzo[1,4]thiazine-6-carboxylic acid (5-thiophen-2-yl-2H-pyrazol-3-yl)-amide] | 0.9 | 3
27 | O=C(CC1CN(Cc2ccccc2)c2ccccc2S1(=O)=O)NO (stereo not shown) [Example 9, 2-(4-Benzyl-1,1-dioxo-1,2,3,4-tetrahydro-1λ^6-benzo[1,4]thiazin-2-yl)-N-hydroxy-acetamide] | 21.2 | 21.4
28 | CCN1CC(CC(=O)NO)S(=O)(=O)c2ccc(C(=O)NCc3ccc(C(F)(F)F)cc3)cc21 (stereo not shown) [Example 25, 4-Ethyl-2-hydroxycarbamoylmethyl-1,1-dioxo-1,2,3,4-tetrahydro-1λ^6-benzo[1,4]thiazine-6-carboxylic acid 4-trifluoromethyl-benzylamide] |  | 4.2
